# Laboratory results: US10770169B2, “Method of providing a treatment to a subject based on a dynamic pathway map” (THE REGENTS OF THE UNIVERSITY OF CALIFORNIA, priority 2010, dated 2020)
# Like-named read-outs stand apart in the source and are kept apart here.
# Key:
# [1] = system: breast cancer cell lines with aberrant vs normal copy number; assay: Association of recurrent copy number changes and response (t-test on GI50); type: cell-based, human; conditions: FDR p<0.2
# Summary of the method: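 A t-test compared GI50 between cell lines with high amplification at 8q24 (MYC), 11q13 (CCND1) or 20q13 (STK15/AURKA) and lines with low or no amplification, grouped together. Lines whose GI50 equalled the maximum concentration tested were excluded. Compounds with any group under five samples were also excluded.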
# [2] = system: panel of 55 breast cancer cell lines; assay: Cell growth inhibition assay (Cell Titer Glo, 72 h, 9 doses; GI50, TGI, LC50); type: cell-based, human; conditions: Homo sapiens, read-out: GI50 (converted)
# [3] = target: CDK4 (Homo sapiens, UniProt P11802); conditions: cited from earlier work
# [4] = system: luminal, basal, claudin-low and ERBB2AMP breast cancer cell lines; assay: Associations of clinically relevant subtypes and response (non-parametric ANOVA or t-test on GI50 ranks); type: cell-based, human; conditions: Table 6; most sensitive subtype, FDR p<0.20
# Summary of the method: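 GI50 values were compared between cell-line subtype groups by non-parametric ANOVA or t-test on ranks. P-values from three test sets were combined and FDR-corrected. Significant three-group effects were followed by post-hoc comparison of each group against all others, and FDR p<0.20 counted as significant.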
# Sequence of CDK4 (P11802 whole entry, species assumed): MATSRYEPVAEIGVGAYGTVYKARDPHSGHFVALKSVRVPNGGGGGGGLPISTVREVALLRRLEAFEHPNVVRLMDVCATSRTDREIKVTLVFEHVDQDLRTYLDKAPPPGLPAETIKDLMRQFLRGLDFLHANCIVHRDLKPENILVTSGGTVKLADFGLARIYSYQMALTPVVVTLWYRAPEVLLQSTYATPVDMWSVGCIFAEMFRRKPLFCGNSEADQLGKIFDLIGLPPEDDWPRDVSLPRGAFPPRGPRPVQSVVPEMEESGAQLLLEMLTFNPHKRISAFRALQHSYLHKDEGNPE
# Sequence of CDK4 (P24385 whole entry partner, species assumed): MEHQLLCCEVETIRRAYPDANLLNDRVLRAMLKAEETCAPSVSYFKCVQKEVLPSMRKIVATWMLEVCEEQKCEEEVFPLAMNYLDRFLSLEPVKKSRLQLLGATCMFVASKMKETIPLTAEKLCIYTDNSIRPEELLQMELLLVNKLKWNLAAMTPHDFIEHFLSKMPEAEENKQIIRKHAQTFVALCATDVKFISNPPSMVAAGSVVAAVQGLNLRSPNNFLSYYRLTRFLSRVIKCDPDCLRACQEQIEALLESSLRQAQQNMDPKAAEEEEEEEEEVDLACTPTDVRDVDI
structure (smiles),measurement,setting,value
O=C1c2ccccc2-[n+]2ccc3c([nH]c4ccccc43)c21 [Fascaplysin],association of response with homozygous deletion at 9p21 (CDKN2A),[1],associated with response
same,GI50,"[2]; 600MPE cell line, censored GI50 values",288 nM
same,GI50,"[2]; AU565, AU565 cell line, censored GI50 values",120 nM
same,GI50,"[2]; AU565, cell line AU565",120 nM
same,GI50,"[2]; BT-20, BT20 cell line, censored GI50 values",309 nM
same,GI50,"[2]; BT-20, cell line BT20",309 nM
same,GI50,"[2]; BT-474, BT474 cell line, censored GI50 values",191 nM
same,GI50,"[2]; BT-474, cell line BT474",191 nM
same,GI50,"[2]; BT-483, BT483 cell line, censored GI50 values",66.1 nM
same,GI50,"[2]; BT-483, cell line BT483",66.1 nM
same,GI50,"[2]; BT-549, BT549 cell line, censored GI50 values",513 nM
same,GI50,"[2]; BT-549, cell line BT549",513 nM
same,GI50,"[2]; CAMA-1, CAMA1 cell line, censored GI50 values",245 nM
same,GI50,"[2]; CAMA-1, cell line CAMA1",245 nM
same,GI50,"[2]; HCC38, HCC38 cell line, censored GI50 values",275 nM
same,GI50,"[2]; HCC38, cell line HCC38",275 nM
same,GI50,"[2]; HCC70, HCC70 cell line, censored GI50 values",126 nM
same,GI50,"[2]; HCC70, cell line HCC70",126 nM
same,GI50,"[2]; HCC202, HCC202 cell line, censored GI50 values",42.7 nM
same,GI50,"[2]; HCC202, cell line HCC202",42.7 nM
same,GI50,"[2]; HCC1143, HCC1143 cell line, censored GI50 values",275 nM
same,GI50,"[2]; HCC1143, cell line HCC1143",275 nM
same,GI50,"[2]; HCC1187, HCC1187 cell line, censored GI50 values",15.5 nM
same,GI50,"[2]; HCC1187, cell line HCC1187",15.5 nM
same,GI50,"[2]; HCC1395, HCC1395 cell line, censored GI50 values",324 nM
same,GI50,"[2]; HCC1395, cell line HCC1395",324 nM
same,GI50,"[2]; HCC1419, HCC1419 cell line, censored GI50 values",263 nM
same,GI50,"[2]; HCC1419, cell line HCC1419",263 nM
same,GI50,"[2]; HCC1428, HCC1428 cell line, censored GI50 values",37.2 nM
same,GI50,"[2]; HCC1428, cell line HCC1428",37.2 nM
same,GI50,"[2]; HCC1500, HCC1500 cell line, censored GI50 values",224 nM
same,GI50,"[2]; HCC1500, cell line HCC1500",224 nM
same,GI50,"[2]; HCC1806, HCC1806 cell line, censored GI50 values",257 nM
same,GI50,"[2]; HCC1806, cell line HCC1806",257 nM
same,GI50,"[2]; HCC1937, HCC1937 cell line, censored GI50 values",389 nM
same,GI50,"[2]; HCC1937, cell line HCC1937",389 nM
same,GI50,"[2]; HCC1954, HCC1954 cell line, censored GI50 values",269 nM
same,GI50,"[2]; HCC1954, cell line HCC1954",269 nM
same,GI50,"[2]; HCC2185 cell line, censored GI50 values",126 nM
same,GI50,"[2]; HCC3153 cell line, censored GI50 values",347 nM
same,GI50,"[2]; LY2 cell line, censored GI50 values",7.94 nM
same,GI50,"[2]; MCF7, MCF7 cell line, censored GI50 values",191 nM
same,GI50,"[2]; MCF7, cell line MCF7",191 nM
same,GI50,"[2]; MDA-MB-134-VI, MDAMB134VI cell line, censored GI50 values",224 nM
same,GI50,"[2]; MDA-MB-157, MDAMB157 cell line, censored GI50 values",170 nM
same,GI50,"[2]; MDA-MB-157, cell line MDAMB157",170 nM
same,GI50,"[2]; MDA-MB-175-VII, MDAMB175VII cell line, censored GI50 values",191 nM
same,GI50,"[2]; MDA-MB-231, MDAMB231 cell line, censored GI50 values",251 nM
same,GI50,"[2]; MDA-MB-231, cell line MDAMB231",251 nM
same,GI50,"[2]; MDA-MB-361, MDAMB361 cell line, censored GI50 values",81.3 nM
same,GI50,"[2]; MDA-MB-361, cell line MDAMB361",81.3 nM
same,GI50,"[2]; MDA-MB-415, MDAMB415 cell line, censored GI50 values",60.3 nM
same,GI50,"[2]; MDA-MB-415, cell line MDAMB415",60.3 nM
same,GI50,"[2]; MDA-MB-436, MDAMB436 cell line, censored GI50 values",417 nM
same,GI50,"[2]; MDA-MB-436, cell line MDAMB436",417 nM
same,GI50,"[2]; MDA-MB-453, MDAMB453 cell line, censored GI50 values",87.1 nM
same,GI50,"[2]; MDA-MB-453, cell line MDAMB453",87.1 nM
same,GI50,"[2]; MDA-MB-468, MDAMB468 cell line, censored GI50 values",77.6 nM
same,GI50,"[2]; MDA-MB-468, cell line MDAMB468",77.6 nM
same,GI50,"[2]; SK-BR-3, SKBR3 cell line, censored GI50 values",224 nM
same,GI50,"[2]; SK-BR-3, cell line SKBR3",224 nM
same,GI50,"[2]; SUM52PE, SUM52PE cell line, censored GI50 values",182 nM
same,GI50,"[2]; SUM52PE, cell line SUM52PE",182 nM
same,GI50,"[2]; SUM149PT, SUM149PT cell line, censored GI50 values",398 nM
same,GI50,"[2]; SUM149PT, cell line SUM149PT",398 nM
same,GI50,"[2]; SUM185PE, SUM185PE cell line, censored GI50 values",55 nM
same,GI50,"[2]; SUM185PE, cell line SUM185PE",55 nM
same,GI50,"[2]; SUM225CWN, SUM225CWN cell line, censored GI50 values",67.6 nM
same,GI50,"[2]; SUM225CWN, cell line SUM225CWN",67.6 nM
same,GI50,"[2]; SUM1315MO2, SUM1315MO2 cell line, censored GI50 values",417 nM
same,GI50,"[2]; SUM-159-PT, SUM159PT cell line, censored GI50 values",427 nM
same,GI50,"[2]; SUM-159-PT, cell line SUM159PT",427 nM
same,GI50,"[2]; T47D, T47D cell line, censored GI50 values",457 nM
same,GI50,"[2]; T47D, cell line T47D",457 nM
same,GI50,"[2]; UACC-893, UACC893 cell line, censored GI50 values",186 nM
same,GI50,"[2]; UACC-893, cell line UACC893",186 nM
same,GI50,"[2]; ZR-75-1, ZR751 cell line, censored GI50 values",355 nM
same,GI50,"[2]; ZR-75-1, cell line ZR751",355 nM
same,GI50,"[2]; ZR-75B, ZR75B cell line, censored GI50 values",407 nM
same,GI50,"[2]; ZR-75B, cell line ZR75B",407 nM
same,GI50,[2]; cell line 600MPE,288 nM
same,GI50,[2]; cell line HCC2185,126 nM
same,GI50,[2]; cell line HCC3153,347 nM
same,GI50,[2]; cell line LY2,7.94 nM
same,GI50,[2]; cell line MDAMB134V,224 nM
same,GI50,[2]; cell line MDAMB175V,191 nM
same,GI50,[2]; cell line SUM1315MO,417 nM
same,inhibition of CDK4,[3],inhibited CDK4
same,Subtype specificity,[4],Luminal
